From patent US20080274522A1, “METHOD FOR THE PRODUCTION OF 2-BUTANONE” (priority 2007, published 2008)
Where two headings read alike, the source gives them in different places.

Tests used:
[1] = tested on: Lactobacillus plantarum PN0512; assay: Growth of L. plantarum PN0512 in the presence of butanols at different temperatures (OD600); type: cell-based; design: key to Growth of L. plantarum PN0512 in the presence of 1-butanol / Growth of L. plantarum PN0512 in the presence of isobutanol / Growth of L. plantarum PN0512 in the presence of 2-butanol: +: growth observed as an increase in OD600.; −: no growth observed, i.e. no change in OD600
Experimental: Tolerance levels of bacterial strain Lactobacillus plantarum PN0512 (ATCC # PTA-7727) were determined at 25° C., 30° C. and 37° C. as follows. The strain was cultured in S30L medium (i.e., 10 mM ammonium sulfate, 5 mM potassium phosphate buffer, pH 7.0, 50 mM MOPS, pH 7.0, 2 mM MgCl2, 0.7 mM CaCl2, 50 μM MnCl2, 1 μM FeCl3, 1 μM ZnCl2, 1.72 μM CuCl2, 2.53 μM COCl2, 2.42 μM Na2MoO4, 2 μM thiamine hydrochloride, 10 mM glucose, and 0.2% yeast extract). An overnight culture in the absence of any test compound was started in 15 mL of the S30L medium in a 150 mL flask, with incubation at 37° C. in a shaking water bath. The next morning, the overnight culture was diluted into three 500 mL flasks containing 150 mL of fresh medium to an initial OD600 of about 0.08. Each flask was incubated in a shaking water bath, one each at 25° C., 30° C. and 37° C. Each large culture was allowed to acclimate at the test temperature for at least 0.5 h. […] Growth was followed by measuring OD600 for six hours after addition of the compounds.

E. coli strain MG1655 = conditions: stationary phase
Experimental: For the stationary phase studies, E. coli strain MG1655 (ATCC # 700926) was grown overnight in LB medium (Teknova, Half Moon Bay, Calif.) with shaking at 250 rpm at 42° C., […] 28° C. […] To these were added 10 μL of the overnight cultures and the tubes were immediately placed in shaking incubators at 42° C. or 28° C. or left on ice for 30 min. […] Then, 5 μL of the undiluted treated cultures were spotted on LB agar plates. Subsequent 10-fold serial dilutions of 10^−3, 10^−4, 10^−5 and 10^−6 of the exposed cultures were done by serial pipetting of 20 μL, starting with the 10^−2 dilution cultures, into 180 μL of LB medium in the microplate, using a multi-channel pipette. Prior to each transfer, the cultures were mixed by pipetting up and down six times. Each dilution (5 μL) was spotted onto an LB plate using a multi-channel pipette and allowed to soak into the plate. The plates were inverted and incubated overnight at 37° C. […] Survival of 0% was recorded when no colonies in the spots of the undiluted or any of the serial dilutions were observed.

[2] = 1-butanol 1.0 % (w/v), grown at 29° C.
[3] = 1-butanol 1.0 % (w/v), grown at 42° C.
[4] = 1-butanol 1.5 % (w/v), grown at 29° C.
[5] = 1-butanol 1.5 % (w/v), grown at 42° C.
[6] = 1-butanol 2.0 % (w/v), grown at 29° C.
[7] = 1-butanol 2.0 % (w/v), grown at 42° C.
[8] = 1-butanol 3.0 % (w/v), grown at 29° C.
[9] = 1-butanol 3.0 % (w/v), grown at 42° C.
[10] = 1-butanol 4.0 % (w/v), grown at 29° C.
[11] = 1-butanol 4.0 % (w/v), grown at 42° C.
[12] = 1-butanol […] (w/v), grown at 29° C.
[13] = 1-butanol […] (w/v), grown at 42° C.

## 1-butanol
[1]; 1.0 % w/v, 37° C.
  Growth of L. plantarum PN0512 in the presence of 1-butanol: +
[1]; 1.2 % w/v, 37° C.
  Growth of L. plantarum PN0512 in the presence of 1-butanol: +
[1]; 1.4 % w/v, 37° C.
  Growth of L. plantarum PN0512 in the presence of 1-butanol: +
[1]; 1.5 % w/v, 25° C.
  Growth of L. plantarum PN0512 in the presence of 1-butanol: +
[1]; 1.5 % w/v, 30° C.
  Growth of L. plantarum PN0512 in the presence of 1-butanol: +
[1]; 1.5 % w/v, 37° C.
  Growth of L. plantarum PN0512 in the presence of 1-butanol: +
[1]; 1.6 % w/v, 37° C.
  Growth of L. plantarum PN0512 in the presence of 1-butanol: +
[1]; 1.8 % w/v, 37° C.
  Growth of L. plantarum PN0512 in the presence of 1-butanol: +
[1]; 2.0 % w/v, 25° C.
  Growth of L. plantarum PN0512 in the presence of 1-butanol: +
[1]; 2.0 % w/v, 30° C.
  Growth of L. plantarum PN0512 in the presence of 1-butanol: +
[1]; 2.0 % w/v, 37° C.
  Growth of L. plantarum PN0512 in the presence of 1-butanol: +
[1]; 2.1 % w/v, 37° C.
  Growth of L. plantarum PN0512 in the presence of 1-butanol: +
[1]; 2.2 % w/v, 37° C.
  Growth of L. plantarum PN0512 in the presence of 1-butanol: +
[1]; 2.3 % w/v, 37° C.
  Growth of L. plantarum PN0512 in the presence of 1-butanol: +
[1]; 2.4 % w/v, 25° C.
  Growth of L. plantarum PN0512 in the presence of 1-butanol: +
[1]; 2.4 % w/v, 30° C.
  Growth of L. plantarum PN0512 in the presence of 1-butanol: +
[1]; 2.4 % w/v, 37° C.
  Growth of L. plantarum PN0512 in the presence of 1-butanol: −^2
[1]; 2.7 % w/v, 30° C.
  Growth of L. plantarum PN0512 in the presence of 1-butanol: +
[1]; 2.7 % w/v, 37° C.
  Growth of L. plantarum PN0512 in the presence of 1-butanol: −
[1]; 2.9 % w/v, 25° C.
  Growth of L. plantarum PN0512 in the presence of 1-butanol: +
[1]; 2.9 % w/v, 30° C.
  Growth of L. plantarum PN0512 in the presence of 1-butanol: −
[1]; 2.9 % w/v, 37° C.
  Growth of L. plantarum PN0512 in the presence of 1-butanol: −
[1]; 3.1 % w/v, 25° C.
  Growth of L. plantarum PN0512 in the presence of 1-butanol: +
[1]; 3.1 % w/v, 30° C.
  Growth of L. plantarum PN0512 in the presence of 1-butanol: −
[1]; 3.1 % w/v, 37° C.
  Growth of L. plantarum PN0512 in the presence of 1-butanol: −
[1]; 3.2 % w/v, 25° C.
  Growth of L. plantarum PN0512 in the presence of 1-butanol: −
[1]; 3.2 % w/v, 30° C.
  Growth of L. plantarum PN0512 in the presence of 1-butanol: −
[1]; 3.3 % w/v, 25° C.
  Growth of L. plantarum PN0512 in the presence of 1-butanol: −
[1]; 3.4 % w/v, 25° C.
  Growth of L. plantarum PN0512 in the presence of 1-butanol: −
[1]; 3.4 % w/v, 30° C.
  Growth of L. plantarum PN0512 in the presence of 1-butanol: −
[1]; 25° C.
  Concentration in which growth was observed: 3.1%
[1]; 30° C.
  Concentration in which growth was not observed: 2.9%
  Concentration in which growth was observed: 2.7%
[1]; 37° C.
  Concentration in which growth was not observed: 2.4%
  Concentration in which growth was observed: 2.3%
[1]; […] w/v, 37° C.
  Growth of L. plantarum PN0512 in the presence of 1-butanol: −
E. coli strain MG1655; 1-butanol 1.0 % (w/v), grown at 28° C.
  % survival after 30 min exposure at 28° C.: 100%
E. coli strain MG1655; [2]
  % survival after 30 min exposure at 0° C.: 100%
  % survival after 30 min exposure at 42° C.: 100%
E. coli strain MG1655; [3]
  % survival after 30 min exposure at 0° C.: 100%
  % survival after 30 min exposure at 28° C.: 100%
  % survival after 30 min exposure at 42° C.: 100%
E. coli strain MG1655; 1-butanol 1.5 % (w/v), grown at 28° C.
  % survival after 30 min exposure at 28° C.: 100%
E. coli strain MG1655; [4]
  % survival after 30 min exposure at 0° C.: 100%
  % survival after 30 min exposure at 42° C.: 0.1%
E. coli strain MG1655; [5]
  % survival after 30 min exposure at 0° C.: 100%
  % survival after 30 min exposure at 28° C.: 100%
  % survival after 30 min exposure at 42° C.: 0.1%
E. coli strain MG1655; 1-butanol 2.0 % (w/v), grown at 28° C.
  % survival after 30 min exposure at 28° C.: 100%
E. coli strain MG1655; [6]
  % survival after 30 min exposure at 0° C.: 100%
  % survival after 30 min exposure at 42° C.: 0.1%
E. coli strain MG1655; [7]
  % survival after 30 min exposure at 0° C.: 100%
  % survival after 30 min exposure at 28° C.: 100%
  % survival after 30 min exposure at 42° C.: 0%
E. coli strain MG1655; 1-butanol 3.0 % (w/v), grown at 28° C.
  % survival after 30 min exposure at 28° C.: 100%
E. coli strain MG1655; [8]
  % survival after 30 min exposure at 0° C.: 100%
  % survival after 30 min exposure at 42° C.: 0%
E. coli strain MG1655; [9]
  % survival after 30 min exposure at 0° C.: 100%
  % survival after 30 min exposure at 28° C.: 100%
  % survival after 30 min exposure at 42° C.: 0%
E. coli strain MG1655; 1-butanol 4.0 % (w/v), grown at 28° C.
  % survival after 30 min exposure at 28° C.: 0.0003%
E. coli strain MG1655; [10]
  % survival after 30 min exposure at 0° C.: 100%
  % survival after 30 min exposure at 42° C.: 0%
E. coli strain MG1655; [11]
  % survival after 30 min exposure at 0° C.: 100%
  % survival after 30 min exposure at 28° C.: 0.0004%
  % survival after 30 min exposure at 42° C.: 0%
E. coli strain MG1655; 1-butanol 5.0 % (w/v), grown at 29° C.
  % survival after 30 min exposure at 0° C.: 1%
E. coli strain MG1655; 1-butanol 5.0 % (w/v), grown at 42° C.
  % survival after 30 min exposure at 0° C.: 1%
E. coli strain MG1655; 1-butanol 6.0 % (w/v), grown at 29° C.
  % survival after 30 min exposure at 0° C.: 0.001%
E. coli strain MG1655; 1-butanol 6.0 % (w/v), grown at 42° C.
  % survival after 30 min exposure at 0° C.: 0%
E. coli strain MG1655; 1-butanol 7.0 % (w/v), grown at 29° C.
  % survival after 30 min exposure at 0° C.: 0%
E. coli strain MG1655; 1-butanol 7.0 % (w/v), grown at 42° C.
  % survival after 30 min exposure at 0° C.: 0%
E. coli strain MG1655; [12]
  % survival after 30 min exposure at 0° C.: 100%
  % survival after 30 min exposure at 42° C.: 0%
E. coli strain MG1655; [13]
  % survival after 30 min exposure at 0° C.: 100%
  % survival after 30 min exposure at 42° C.: 0%
